Experimental data reported in patent publication US20090137577A1, “HETEROCYCLIC COMPOUNDS” (Pfizer Inc., priority 2007, published 2009).

Molecular target: T1, mGluR2 receptor (metabotropic glutamate receptor 2) (Homo sapiens, UniProt Q14416)
T1 construct: expressed in transfected cells
Test: mGluR2 potentiator screen (FLIPR, EC10-EC20 glutamate challenge);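 also: HEK cells stably expressing human mGluR2 with GL15 G protein, Fluo-4 calcium fluorescence read on FLIPR, compounds added before an EC10-EC20 glutamate challenge to detect potentiation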
Format: cell-based
Details: geometric mean; read-out: mGluR 2 EC50 (geometric mean)

T1 sequence (Q14416 19-872, species assumed): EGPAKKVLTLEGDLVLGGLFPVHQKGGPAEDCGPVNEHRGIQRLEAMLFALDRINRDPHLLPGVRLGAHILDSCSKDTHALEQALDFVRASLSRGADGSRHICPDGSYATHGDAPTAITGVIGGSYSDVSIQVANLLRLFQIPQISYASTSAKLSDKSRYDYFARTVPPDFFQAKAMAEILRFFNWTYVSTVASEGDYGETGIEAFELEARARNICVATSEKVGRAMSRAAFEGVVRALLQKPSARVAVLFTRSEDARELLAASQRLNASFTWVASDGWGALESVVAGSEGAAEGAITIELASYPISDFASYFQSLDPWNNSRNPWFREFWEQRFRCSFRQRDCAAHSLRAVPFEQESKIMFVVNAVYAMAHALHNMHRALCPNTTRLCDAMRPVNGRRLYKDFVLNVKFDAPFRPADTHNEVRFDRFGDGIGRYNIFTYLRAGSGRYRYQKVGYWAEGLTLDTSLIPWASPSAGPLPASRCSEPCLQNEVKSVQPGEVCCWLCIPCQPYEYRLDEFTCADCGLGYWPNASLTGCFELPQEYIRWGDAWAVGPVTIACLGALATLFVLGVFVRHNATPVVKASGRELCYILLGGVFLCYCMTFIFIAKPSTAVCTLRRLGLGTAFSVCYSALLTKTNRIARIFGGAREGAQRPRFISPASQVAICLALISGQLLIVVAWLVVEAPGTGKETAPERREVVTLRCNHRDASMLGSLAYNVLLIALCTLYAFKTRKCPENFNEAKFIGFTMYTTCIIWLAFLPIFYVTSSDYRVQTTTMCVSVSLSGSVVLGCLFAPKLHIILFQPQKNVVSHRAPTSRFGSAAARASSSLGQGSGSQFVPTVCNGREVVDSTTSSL

Structure (SMILES) | EC50
CC(Oc1ccc(CN2C(=O)OC[C@@H]3CCCC[C@@H]32)cc1)C1CCCCC1 (stereo partly drawn) [Example 37] | 2020 nM
COc1cccc(F)c1-c1ccc(CN2C[C@@H](C)OC2=O)cc1 [Example 172] | 31.4 nM
C[C@@H]1CN(Cc2ccc(-c3cc(C#N)ccc3Cl)cc2)C(=O)O1 [Example 231] | 683 nM
Cc1cc(CN2C[C@@H](C)OC2=O)ccc1-c1ccc(F)cc1F [Example 299, (5R)-3-[(2′,4′-Difluoro-2-methylbiphenyl-4-yl)methyl]-5-methyl-1,3-oxazolidin-2-one] | 167 nM
CC(Oc1ccc(CN2CC(C)(C)COC2=O)cc1)C1CCCCC1 (stereo not drawn) [Example 47] | 247 nM
Cc1cc(CN2C[C@@H](C)OC2=O)ccc1Oc1ncc(Cl)cc1Cl [Example 296, (5R)-3-{4-[(3,5-Dichloropyridin-2-yl)oxy]-3-methylbenzyl}-5-methyl-1,3-oxazolidin-2-one] | 45.5 nM
CC(C)COc1ccc(CN2C(=O)O[C@H](c3ccccc3)[C@@H]2C)cc1 [Example 26] | 542 nM
O=C1OC(c2ccccc2)CN1Cc1ccc(OC2CCOCC2)cc1 (stereo not drawn) [Example 36] | 571 nM
CC(C)Oc1ccc(-c2ccc(CN3C[C@@H](C)OC3=O)cn2)c(F)c1 [Example 279] | 159 nM
C[C@@H]1CN(Cc2ccc(-c3cccc(Cl)c3F)c(F)c2)C(=O)O1 [Example 291, (5R)-3-[(3′-chloro-2,2′-difluorobiphenyl-4-yl)methyl]-5-methyl-1,3-oxazolidin-2-one] | 59.6 nM
CC1CN(Cc2ccc(OCCCc3ccccc3)cc2)C(=O)O1 (stereo not drawn) [Example 104] | 37.9 nM
CC1CN(Cc2ccc(OCCCc3cccnc3)cc2)C(=O)O1 (stereo not drawn) [Example 120] | 1150 nM
C[C@@H]1CN(Cc2ccc(-c3ccc4c(c3)CCO4)nc2)C(=O)O1 [Example 264] | 561 nM
Cc1ccc(F)cc1COc1ccc(CN2CC(C)OC2=O)cc1 (stereo not drawn) [Example 142] | 43.5 nM
C[C@@H]1CN(Cc2ccc(OCC3CCC(NC4CCC4)CC3)cc2)C(=O)O1 (stereo partly drawn) [Example 297, (5R)-3-(4-{[4-(Cyclobutylamino)cyclohexyl]methoxy}benzyl)-5-methyl-1,3-oxazolidin-2-one] | 1990 nM
CC1CN(Cc2ccc(OC(C)Cc3ccccc3)cc2)C(=O)O1 (stereo not drawn) [Example 122] | 40.7 nM
CC(Oc1ccc(CN2CCN(C(C)C3CCC3)CC2=O)cc1)C1CCCCC1 (stereo not drawn) [Example 221] | 794 nM
CC1CN(Cc2ccc(OCC3CCC3)cc2)C(=O)O1 (stereo not drawn) [Example 14] | 178 nM
CC1CN(Cc2ccc(OCCc3ccccc3)cc2)C(=O)O1 (stereo not drawn) [Example 102] | 282 nM
C[C@@H]1CN(Cc2ccc(OCC3CCCCC3)c(Cl)c2)C(=O)O1 [Example 286, (5R)-3-[3-chloro-4-(cyclohexylmethoxy)benzyl]-5-methyl-1,3-oxazolidin-2-one] | 32.5 nM
CC1CN(Cc2ccc(OC3Cc4ccccc4C3)cc2)C(=O)O1 (stereo not drawn) [Example 126] | 83.1 nM
CC(C)CCN1CCN(Cc2ccc(OC(C)C3CCCCC3)cc2)C(=O)C1 (stereo not drawn) [Example 220] | 801 nM
C[C@@H]1CN(Cc2ccc(NCC3CCCCC3)nc2)C(=O)O1 [Example 283, (5R)-3-({6-[(Cyclohexylmethyl)amino]pyridin-3-yl}methyl)-5-methyl-1,3-oxazolidin-2-one] | 1290 nM
CC1CN(Cc2ccc(OCCC3CCCC3)cc2)C(=O)O1 (stereo not drawn) [Example 92] | 10.8 nM
CC(C)Oc1ccc(-c2ccc(CN3C[C@@H](C)OC3=O)cc2)cc1F [Example 277] | 53.1 nM
CCCN1CCN(Cc2ccc(OC(C)C3CCCCC3)cc2)C(=O)C1 (stereo not drawn) [Example 215] | 435 nM
COc1cc(COc2ccc(CN3CC(C)OC3=O)cc2)cc(OC)c1 (stereo not drawn) [Example 113] | 244 nM

Structure (SMILES) | EC50
Cc1ccc(C)n1-c1ccc(CN2C[C@@H](C)OC2=O)cc1 [Example 178, (5R)-3-[4-(2,5-dimethyl-1H-pyrrol-1-yl)benzyl]-5-methyl-1,3-oxazolidin-2-one] | 523 nM
O=C1OC(c2ccccc2)CN1Cc1ccc(OCc2ccccc2)cc1 (stereo not drawn) [Example 8] | 153 nM
C[C@@H]1CN(Cc2ccc(-c3ccc(F)c(F)c3)cc2)C(=O)O1 [Example 245] | 92.9 nM
Cc1ccc(CN2CCN(Cc3ccc(OC(C)C4CCCCC4)cc3)C(=O)C2)cc1 (stereo not drawn) [Example 216] | 471 nM
C[C@@H]1CN(Cc2ccc(CN3CCc4ccccc43)cc2)C(=O)O1 [Example 301, (5R)-3-[4-(2,3-Dihydro-1H-indol-1-ylmethyl)benzyl]-5-methyl-1,3-oxazolidin-2-one] | 389 nM
CC[C@](COc1ccc(CN2CC(C)OC2=O)cc1)(c1ccccc1)N(C)C (stereo partly drawn) [Example 145] | 1340 nM
CC1CN(Cc2ccc(OCCc3cccc(Cl)c3)cc2)C(=O)O1 (stereo not drawn) [Example 99] | 115 nM
CC1(C)COC(=O)N(Cc2ccc(OCC3CCCCC3)cc2)C1 [Example 17] | 696 nM
C[C@H]1[C@@H](c2ccccc2)OC(=O)N1Cc1ccc(OCCC2CCCCC2)cc1 [Example 30] | 987 nM
CC1(C)COC(=O)N(Cc2ccc(OCC3CCC3)cc2)C1 [Example 15] | 935 nM
CC(=O)c1cccc(-c2ccc(CN3C[C@@H](C)OC3=O)cc2)c1 [Example 193] | 514 nM
Cc1ccc(F)cc1COc1ccc(CN2C[C@@H](C)OC2=O)cc1 [Example 205] | 68 nM
C[C@@H]1CN(Cc2ccc(OCCC(C)(C)C)cc2)C(=O)O1 [Example 213] | 20.1 nM
C[C@H]1[C@@H](c2ccccc2)OC(=O)N1Cc1ccc(OCC2CCC2)cc1 [Example 24] | 660 nM
C[C@@H]1CN(Cc2cnc(-c3cccc(F)c3F)c(F)c2)C(=O)O1 [Example 298, (5R)-3-{[6-(2,3-Difluorophenyl)-5-fluoropyridin-3-yl]methyl}-5-methyl-1,3-oxazolidin-2-one] | 1360 nM
C[C@@H]1CN(Cc2ccc(-c3cccc(Cl)c3F)cc2)C(=O)O1 [Example 235] | < 23.5 nM
C[C@@H]1CN(Cc2ccc(-c3cnc4ccccc4c3)c(F)c2)C(=O)O1 [Example 294] | 327 nM
CC1CN(Cc2ccc(OCc3cc(F)cc(F)c3)cc2)C(=O)O1 (stereo not drawn) [Example 91] | 152 nM
C[C@@H]1CN(Cc2ccc(-c3ccc(C(F)(F)F)cc3)cc2)C(=O)O1 [Example 64, (5R)-5-methyl-3-{[4′-(trifluoromethyl)biphenyl-4-yl]methyl}-1,3-oxazolidin-2-one] | 61 nM
CC1CN(Cc2ccc(OC[C@@H](C)c3ccccc3)cc2)C(=O)O1 (stereo partly drawn) [Example 111] | 48.3 nM
Cc1c(COc2ccc(CN3CC(C)OC3=O)cc2)cnn1-c1ccccc1 (stereo not drawn) [Example 128] | 595 nM
CC1CN(Cc2ccc(OCc3ccc(F)cc3)cc2)C(=O)O1 (stereo not drawn) [Example 110] | 243 nM
CC1CN(Cc2ccc(OCC3(C)CC3)cc2)C(=O)O1 (stereo not drawn) [Example 95] | 723 nM
C[C@@H]1CN(Cc2ccc(OCCCc3ccccc3)cc2)C(=O)O1 [Example 204, (5R)-5-methyl-3-[4-(3-phenylpropoxy)benzyl]-1,3-oxazolidin-2-one] | 24.8 nM
CC(C1CCC1)N1CCN(Cc2ccc(-c3ccc(F)cc3F)cc2)C(=O)C1 (stereo not drawn) [Example 306, 4-(1-Cyclobutylethyl)-1-[(2′,4′-difluorobiphenyl-4-yl)methyl]piperazin-2-one] | 327 nM
COc1cc(COc2ccc(CN3CC(C)OC3=O)cc2)ccc1C (stereo not drawn) [Example 146] | 1110 nM
C[C@H]1[C@@H](c2ccccc2)OC(=O)N1Cc1ccc(OCc2cccnc2)cc1 [Example 32] | 245 nM
